Measured values from ChEMBL document CHEMBL4311960, “Two optimized antimicrobial peptides with therapeutic potential for clinical antibiotic-resistant Staphylococcus aureus” (Eur J Med Chem, 2019).
In brackets after ≈: the same amount, converted by molar mass.

Tests used:
Candida albicans = assay: Antifungal activity against Candida albicans ATCC 5314 assessed as reduction in fungal growth incubated for 24 hrs by serial dilution method; format: functional; conditions: ATCC 5314, 24 h
Staphylococcus aureus [1] = assay: Antibacterial activity against methicillin-resistant Staphylococcus aureus ATCC 19952 assessed as reduction in bacterial growth incubated for 24 hrs by serial dilution method; format: functional; conditions: ATCC 19952, 24 h
Staphylococcus aureus [2] = assay: Antibacterial activity against methicillin-resistant Staphylococcus aureus ATCC 19916 assessed as reduction in bacterial growth incubated for 24 hrs by serial dilution method; format: functional; conditions: ATCC 19916, 24 h
Staphylococcus aureus [3] = assay: Antibacterial activity against methicillin-resistant Staphylococcus aureus ATCC 18567 assessed as reduction in bacterial growth incubated for 24 hrs by serial dilution method; format: functional; conditions: ATCC 18567, 24 h
Staphylococcus aureus [4] = assay: Antibacterial activity against methicillin-resistant Staphylococcus aureus ATCC 19423 assessed as reduction in bacterial growth incubated for 24 hrs by serial dilution method; format: functional; conditions: ATCC 19423, 24 h
Staphylococcus aureus [5] = assay: Antibacterial activity against methicillin-resistant Staphylococcus aureus ATCC 19498 assessed as reduction in bacterial growth incubated for 24 hrs by serial dilution method; format: functional; conditions: ATCC 19498, 24 h
Staphylococcus aureus [6] = assay: Antibacterial activity against methicillin-resistant Staphylococcus aureus ATCC 18858 assessed as reduction in bacterial growth incubated for 24 hrs by serial dilution method; format: functional; conditions: ATCC 18858, 24 h
Staphylococcus aureus [7] = assay: Antibacterial activity against Staphylococcus aureus ATCC 29213 assessed as reduction in bacterial growth at MIC measured after 15 passages; format: functional
Staphylococcus aureus [8] = assay: Antibacterial activity against Staphylococcus aureus ATCC 29213 assessed as reduction in bacterial growth incubated for 24 hrs by serial dilution method; format: functional; conditions: ATCC 29213, 24 h
Staphylococcus aureus [9] = assay: Antibacterial activity against Staphylococcus aureus ATCC 25923 assessed as reduction in bacterial growth at MIC measured after 15 passages; format: functional
Staphylococcus aureus [10] = assay: Antibacterial activity against methicillin-resistant Staphylococcus aureus ATCC 18908 assessed as reduction in bacterial growth incubated for 24 hrs by serial dilution method; format: functional; conditions: ATCC 18908, 24 h
Staphylococcus aureus [11] = assay: Antibacterial activity against methicillin-resistant Staphylococcus aureus ATCC 19047 assessed as reduction in bacterial growth incubated for 24 hrs by serial dilution method; format: functional; conditions: ATCC 19047, 24 h
Staphylococcus aureus [12] = assay: Antibacterial activity against methicillin-resistant Staphylococcus aureus ATCC 18466 assessed as reduction in bacterial growth incubated for 24 hrs by serial dilution method; format: functional; conditions: ATCC 18466, 24 h
Staphylococcus aureus [13] = assay: Antibacterial activity against methicillin-resistant Staphylococcus aureus ATCC 18878 assessed as reduction in bacterial growth incubated for 24 hrs by serial dilution method; format: functional; conditions: ATCC 18878, 24 h
Staphylococcus aureus [14] = assay: Antibacterial activity against methicillin-resistant Staphylococcus aureus ATCC 19167 assessed as reduction in bacterial growth incubated for 24 hrs by serial dilution method; format: functional; conditions: ATCC 19167, 24 h
Staphylococcus aureus [15] = assay: Antibacterial activity against methicillin-resistant Staphylococcus aureus ATCC 19900 assessed as reduction in bacterial growth incubated for 24 hrs by serial dilution method; format: functional; conditions: ATCC 19900, 24 h
Staphylococcus aureus [16] = assay: Antibacterial activity against methicillin-resistant Staphylococcus aureus ATCC 18475 assessed as reduction in bacterial growth incubated for 24 hrs by serial dilution method; format: functional; conditions: ATCC 18475, 24 h
Staphylococcus aureus [17] = assay: Antibacterial activity against Staphylococcus aureus ATCC 25923 assessed as reduction in bacterial growth incubated for 24 hrs by serial dilution method; format: functional; conditions: ATCC 25923, 24 h, read-out: MIC
Staphylococcus aureus [18] = assay: Antibacterial activity against methicillin-resistant Staphylococcus aureus ATCC 19494 assessed as reduction in bacterial growth incubated for 24 hrs by serial dilution method; format: functional; conditions: ATCC 19494, 24 h
Staphylococcus aureus [19] = assay: Antibacterial activity against Staphylococcus aureus ATCC 6538 assessed as reduction in bacterial growth incubated for 24 hrs by serial dilution method; format: functional; conditions: ATCC 6538, 24 h
Staphylococcus aureus [20] = assay: Ratio of MIC for resistant Staphylococcus aureus ATCC 25923 for 15 days to MIC for Staphylococcus aureus ATCC 25923 for 24 hrs; format: functional
Staphylococcus aureus [21] = assay: Antibacterial activity against methicillin-resistant Staphylococcus aureus ATCC 19041 assessed as reduction in bacterial growth incubated for 24 hrs by serial dilution method; format: functional; conditions: ATCC 19041, 24 h
Staphylococcus aureus [22] = assay: Antibacterial activity against Staphylococcus aureus ATCC 8325.4 assessed as reduction in bacterial growth incubated for 24 hrs by serial dilution method; format: functional; conditions: ATCC 8325.4, 24 h
Staphylococcus aureus [23] = assay: Ratio of MIC for resistant Staphylococcus aureus ATCC 29213 for 15 days to MIC for Staphylococcus aureus ATCC 29213 for 24 hrs; format: functional
Staphylococcus aureus [24] = assay: Antibacterial activity against methicillin-resistant Staphylococcus aureus ATCC 19102 assessed as reduction in bacterial growth incubated for 24 hrs by serial dilution method; format: functional; conditions: ATCC 19102, 24 h
Streptococcus sanguinis = assay: Antibacterial activity against Streptococcus sanguinis ATCC 10556 assessed as reduction in bacterial growth incubated for 24 hrs by serial dilution method; format: functional; conditions: ATCC 10556, 24 h
Streptococcus mutans = assay: Antibacterial activity against Streptococcus mutans UA159 assessed as reduction in bacterial growth incubated for 24 hrs by serial dilution method; format: functional; conditions: UA159, 24 h
[25] = Cytotoxicity against human HEK293T cells assessed as cell viability at 5 to 640 ug/ml incubated for 48 hrs by MTT assay relative to control; format: cell-based, HEK-293T; conditions: read-out: Activity
Erythrocyte = assay: Hemolytic activity in mouse Erythrocyte assessed as HC10 incubated for 1 hr; format: ADME, cell-based
[26] = Hemolytic activity in mouse Erythrocyte at 640 ug/ml incubated for 1 hr relative to control; format: ADME, cell-based; conditions: mouse erythrocytes, read-out: %max
[27] = Hemolytic activity in mouse Erythrocyte assessed as HC50 incubated for 1 hr; format: ADME, cell-based; conditions: mouse erythrocytes
[28] = Cytotoxicity against human HEK293T cells assessed as cell viability at 640 ug/ml incubated for 48 hrs by MTT assay relative to control; format: cell-based, HEK-293T; conditions: read-out: Activity

Work on `Clc1ccc(COC(Cn2ccnc2)c2ccc(Cl)cc2Cl)cc1` (stereo not drawn) [ECONAZOLE] yielded an MIC (Candida albicans; read-out: MIC) of 4 µg/mL (≈ 10.5 µM).

With `COc1cccc(OC)c1C(=O)N[C@@H]1C(=O)N2[C@@H]1SC(C)(C)[C@@H]2C(=O)O` [METHICILLIN] the MIC (Staphylococcus aureus [1]) was over 1200 µg/mL, the MIC (Staphylococcus aureus [2]) was over 1200 µg/mL and the MIC (Staphylococcus aureus [3]) was over 1200 µg/mL. It also gave an MIC (Staphylococcus aureus [4]) of over 1200 µg/mL, an MIC (Staphylococcus aureus [5]) of over 1200 µg/mL and an MIC (Staphylococcus aureus [6]) of over 1200 µg/mL. The “fold change (FC)” value (Staphylococcus aureus [7]) was 8 - 16, the MIC (Staphylococcus aureus [8]) was 1 µg/mL (≈ 2.63 µM) and the “fold change (FC)” value (Staphylococcus aureus [9]) was 8 - 16. It also gave an MIC (Staphylococcus aureus [10]) of over 1200 µg/mL, an MIC (Staphylococcus aureus [11]) of over 1200 µg/mL and an MIC (Staphylococcus aureus [12]; read-out: MIC) of over 1200 µg/mL. For the same compound, the MIC (Staphylococcus aureus [13]) was over 1200 µg/mL, the MIC (Staphylococcus aureus [14]) was over 1200 µg/mL and the MIC (Staphylococcus aureus [15]) was over 1200 µg/mL. For the same compound, the MIC (Staphylococcus aureus [16]) was over 1200 µg/mL, the MIC (Staphylococcus aureus [17]) was 1 µg/mL (≈ 2.63 µM) and the MIC (Staphylococcus aureus [18]) was over 1200 µg/mL. The MIC (Staphylococcus aureus [19]) was 1 µg/mL (≈ 2.63 µM), the Ratio (Staphylococcus aureus [20]) was 8 - 16 and the MIC (Staphylococcus aureus [21]) was over 1200 µg/mL. The MIC (Staphylococcus aureus [22]) was 1 µg/mL (≈ 2.63 µM), the Ratio (Staphylococcus aureus [23]) was 8 - 16 and the MIC (Staphylococcus aureus [24]) was over 1200 µg/mL.

Work on `Cc1onc(-c2ccccc2)c1C(=O)N[C@@H]1C(=O)N2[C@@H]1SC(C)(C)[C@@H]2C(=O)O` [OXACILLIN] yielded an MIC (Staphylococcus aureus [1]) of over 1200 µg/mL, an MIC (Staphylococcus aureus [2]) of over 1200 µg/mL and an MIC (Staphylococcus aureus [3]) of over 1200 µg/mL. The MIC (Staphylococcus aureus [4]) was over 1200 µg/mL, the MIC (Staphylococcus aureus [5]) was over 1200 µg/mL and the MIC (Staphylococcus aureus [6]) was over 1200 µg/mL. For the same compound, the “fold change (FC)” value (Staphylococcus aureus [7]) was 8, the MIC (Staphylococcus aureus [8]) was 1 µg/mL (≈ 2.49 µM) and the “fold change (FC)” value (Staphylococcus aureus [9]) was 8. The MIC (Staphylococcus aureus [10]) was over 1200 µg/mL, the MIC (Staphylococcus aureus [11]) was over 1200 µg/mL and the MIC (Staphylococcus aureus [12]; read-out: MIC) was over 1200 µg/mL. The MIC (Staphylococcus aureus [13]) was over 1200 µg/mL, the MIC (Staphylococcus aureus [14]) was over 1200 µg/mL and the MIC (Staphylococcus aureus [15]) was over 1200 µg/mL. The MIC (Staphylococcus aureus [16]) was over 1200 µg/mL, the MIC (Staphylococcus aureus [17]) was 0.5 µg/mL (≈ 1.25 µM) and the MIC (Staphylococcus aureus [18]) was over 1200 µg/mL. For the same compound, the MIC (Staphylococcus aureus [19]) was 0.5 µg/mL (≈ 1.25 µM), the Ratio (Staphylococcus aureus [20]) was 8 and the MIC (Staphylococcus aureus [21]) was over 1200 µg/mL. It also gave an MIC (Staphylococcus aureus [22]) of 0.5 µg/mL (≈ 1.25 µM), a Ratio (Staphylococcus aureus [23]) of 8 and an MIC (Staphylococcus aureus [24]) of over 1200 µg/mL.

Work on `CN[C@H](CC(C)C)C(=O)N[C@H]1C(=O)N[C@@H](CC(N)=O)C(=O)N[C@H]2C(=O)N[C@H]3C(=O)N[C@H](C(=O)N[C@H](C(=O)O)c4cc(O)cc(O)c4-c4cc3ccc4O)[C@H](O)c3ccc(c(Cl)c3)Oc3cc2cc(c3O[C@@H]2O[C@H](CO)[C@@H](O)[C@H](O)[C@H]2O[C@H]2C[C@](C)(N)[C@H](O)[C@H](C)O2)Oc2ccc(cc2Cl)[C@H]1O` [VANCOMYCIN] yielded an MIC (Streptococcus sanguinis; read-out: MIC) of 1 µg/mL (≈ 0.69 µM) and an MIC (Streptococcus mutans; read-out: MIC) of 2 µg/mL (≈ 1.38 µM).

With H-LYKRYILRKFKFLKKKLKKK-NH2 the viability at 48 h [25] was 70 to 80%, the HC10 (Erythrocyte) was over 640 µg/mL and the MIC (Streptococcus sanguinis) was over 64 µg/mL. The MIC (Streptococcus mutans) was over 64 µg/mL, the MIC (Staphylococcus aureus [12]; read-out: MIC) was 64 µg/mL and the hemolysis at 1 h, 640 ug/ml [26] was 9.34%. The MIC (Staphylococcus aureus [17]) was under 64 µg/mL, the HC50 at 1 h [27] was over 640 µg/mL and the MIC (Candida albicans) was over 64 µg/mL.

H-SYEIKINRHFKTLKKNLKKK-NH2 showed a viability at 48 h [25] of 70 to 80%, an HC10 (Erythrocyte) of over 640 µg/mL and an MIC (Streptococcus sanguinis) of over 64 µg/mL. For the same compound, the MIC (Streptococcus mutans; read-out: MIC) was under 64 µg/mL, the MIC (Staphylococcus aureus [12]) was over 64 µg/mL and the hemolysis at 1 h, 640 ug/ml [26] was 6.78%. It also gave an MIC (Staphylococcus aureus [17]) of under 64 µg/mL, an HC50 at 1 h [27] of over 640 µg/mL and an MIC (Candida albicans) of over 64 µg/mL.

For H-VWKRWVVRKWKWVKKKVKKK-NH2, the HC10 (Erythrocyte) was 57.24 µg/mL, the MIC (Streptococcus sanguinis) was over 64 µg/mL and the MIC (Streptococcus mutans; read-out: MIC) was under 64 µg/mL. It also gave an MIC (Staphylococcus aureus [12]; read-out: MIC) of under 64 µg/mL, a hemolysis at 1 h, 640 ug/ml [26] of 31% and an MIC (Staphylococcus aureus [17]) of under 64 µg/mL. For the same compound, the viability at 48 h, 640 ug/ml [28] was 58.9%, the HC50 at 1 h [27] was over 640 µg/mL and the MIC (Candida albicans; read-out: MIC) was 64 µg/mL.
